Values quoted from earlier work in patent US20100092557A1 (priority 2006, published 2010).

Conditions: general statement in the background; species and matrix not given

Compound | half-life [h]
COc1ccc2c(c1)c(CC(=O)O)c(C)n2C(=O)c1ccc(Cl)cc1 [indomethacin] | 4.6
CCCCC1C(=O)N(c2ccccc2)N(c2ccccc2)C1=O [phenylbutazone] | 68
CC(C(=O)O)c1ccc(C(=O)c2ccccc2)s1 (stereo not drawn) [tiaprofenic acid] | 3.0

Second part, the molecule after the results:

half-life [h] | Compound
1.1 | O=C(O)Cc1ccccc1Nc1c(Cl)cccc1Cl [diclofenac]
1.4 | O=C(O)c1ccccc1Nc1cccc(C(F)(F)F)c1 [flufenamic acid]
57 | CN1C(C(=O)Nc2ccccn2)=C(O)c2ccccc2S1(=O)=O [piroxicam]
